According to PubChem BioAssay AID2060507 (Molecular Pharmacology Branch, DTP, NCI, 2025):
One block for each molecule: values may come before it.

System: 519858-162-T-J1-PDC complex spheroid viability
Test: Anticancer human tumor 519858-162-T-J1-PDC patient-derived colon adenocarcinoma cell line growth inhibition [GQUAD]
Conditions: for IC50: curve of first compound; for viability, T/C: stronger effect = lower value
How it was run: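 Multi-cell-type spheroids of tumor cells with HUVEC and mesenchymal stem cells, treated with drug combinations. Concentrations descend in half-log steps from near clinical Cmax, or from 10 microM where Cmax is unknown; viability read-out.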

[1] = second compound 0.0316 µM, first compound 0.0316 µM
[2] = second compound 0.0316 µM, first compound 0.1 µM
[3] = second compound 0.0316 µM, first compound 0.316 µM
[4] = second compound 0.0316 µM, first compound 1 µM
[5] = second compound 0.0316 µM, first compound 3.16 µM
[6] = second compound 0.0316 µM, first compound 10 µM
[7] = second compound 0.1 µM, first compound 0.0316 µM
[8] = second compound 0.1 µM, first compound 0.1 µM
[9] = second compound 0.1 µM, first compound 0.316 µM
[10] = second compound 0.1 µM, first compound 1 µM
[11] = second compound 0.1 µM, first compound 3.16 µM
[12] = second compound 0.1 µM, first compound 10 µM
[13] = second compound 0.316 µM, first compound 0.0316 µM
[14] = second compound 0.316 µM, first compound 0.1 µM
[15] = second compound 0.316 µM, first compound 0.316 µM
[16] = second compound 0.316 µM, first compound 1 µM
[17] = second compound 0.316 µM, first compound 3.16 µM
[18] = second compound 0.316 µM, first compound 10 µM
[19] = second compound 1 µM, first compound 0.0316 µM
[20] = second compound 1 µM, first compound 0.1 µM
[21] = second compound 1 µM, first compound 0.316 µM
[22] = second compound 1 µM, first compound 1 µM
[23] = second compound 1 µM, first compound 3.16 µM
[24] = second compound 1 µM, first compound 10 µM
[25] = second compound 3.16 µM, first compound 0.0316 µM
[26] = second compound 3.16 µM, first compound 0.1 µM
[27] = second compound 3.16 µM, first compound 0.316 µM
[28] = second compound 3.16 µM, first compound 1 µM
[29] = second compound 3.16 µM, first compound 3.16 µM
[30] = second compound 3.16 µM, first compound 10 µM
[31] = second compound 10 µM, first compound 0.0316 µM
[32] = second compound 10 µM, first compound 0.1 µM
[33] = second compound 10 µM, first compound 0.316 µM
[34] = second compound 10 µM, first compound 1 µM
[35] = second compound 10 µM, first compound 3.16 µM
[36] = second compound 10 µM, first compound 10 µM
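Note: spheroids exposed to compounds for 7 days.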
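Throughout, for viability, T/C: 100% = DMSO vehicle control viability.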

Compound: Nc1ccn(C2OC(CO)C(O)C2(F)F)c(=O)n1 (stereo not drawn) + Cc1[nH]c2ccc(F)cc2c1-c1nc2c3cccnc3c3ncccc3c2[nH]1
IC50 (second compound 0.0316 µM): > 10 µM | IC50 (second compound 0.1 µM): > 10 µM | IC50 (second compound 0.316 µM): > 10 µM | IC50 (second compound 1 µM): > 10 µM | IC50 (second compound 3.16 µM): > 10 µM | IC50 (second compound 10 µM): > 10 µM | viability, T/C [1]: 131% | viability, T/C [2]: 69.3% | viability, T/C [3]: 89.4% | viability, T/C [4]: 80.1% | viability, T/C [5]: 83% | viability, T/C [6]: 72.3% | viability, T/C [7]: 85.9% | viability, T/C [8]: 143% | viability, T/C [9]: 70.5% | viability, T/C [10]: 71% | viability, T/C [11]: 82.9% | viability, T/C [12]: 102% | viability, T/C [13]: 93.3% | viability, T/C [14]: 116% | viability, T/C [15]: 78.5% | viability, T/C [16]: 57.9% | viability, T/C [17]: 70% | viability, T/C [18]: 69.8% | viability, T/C [19]: 90.7% | viability, T/C [20]: 81.9% | viability, T/C [21]: 89.5% | viability, T/C [22]: 76.9% | viability, T/C [23]: 84.2% | viability, T/C [24]: 73.7% | viability, T/C [25]: 54.4% | viability, T/C [26]: 76.8% | viability, T/C [27]: 61.9% | viability, T/C [28]: 47.2% | viability, T/C [29]: 95.4% | viability, T/C [30]: 60.5% | viability, T/C [31]: 82.4% | viability, T/C [32]: 73.5% | viability, T/C [33]: 73% | viability, T/C [34]: 68.9% | viability, T/C [35]: 108% | viability, T/C [36]: 54.2%

Compound: CC1COCCN1c1cc(C2(S(C)(=N)=O)CC2)nc(-c2ccnc3[nH]ccc23)n1 (stereo not drawn) + Cc1[nH]c2ccc(F)cc2c1-c1nc2c3cccnc3c3ncccc3c2[nH]1
IC50 (second compound 0.0316 µM): > 10 µM | IC50 (second compound 0.1 µM): > 10 µM | IC50 (second compound 0.316 µM): > 10 µM | IC50 (second compound 1 µM): > 10 µM | IC50 (second compound 3.16 µM): > 10 µM | IC50 (second compound 10 µM): > 10 µM | viability, T/C [1]: 87.1% | viability, T/C [2]: 91.3% | viability, T/C [3]: 96% | viability, T/C [4]: 113% | viability, T/C [5]: 82.8% | viability, T/C [6]: 81.3% | viability, T/C [7]: 68.2% | viability, T/C [8]: 106% | viability, T/C [9]: 75.4% | viability, T/C [10]: 73.6% | viability, T/C [11]: 91.7% | viability, T/C [12]: 79.3% | viability, T/C [13]: 121% | viability, T/C [14]: 111% | viability, T/C [15]: 104% | viability, T/C [16]: 87.8% | viability, T/C [17]: 67.3% | viability, T/C [18]: 96.2% | viability, T/C [19]: 71.8% | viability, T/C [20]: 81.6% | viability, T/C [21]: 75.8% | viability, T/C [22]: 73.7% | viability, T/C [23]: 61.4% | viability, T/C [24]: 75.3% | viability, T/C [25]: 74.8% | viability, T/C [26]: 79.5% | viability, T/C [27]: 87% | viability, T/C [28]: 55.6% | viability, T/C [29]: 73.2% | viability, T/C [30]: 54.6% | viability, T/C [31]: 65.2% | viability, T/C [32]: 74.7% | viability, T/C [33]: 55% | viability, T/C [34]: 60.2% | viability, T/C [35]: 67.8% | viability, T/C [36]: 44.1%

IC50 (second compound 0.0316 µM): > 10 µM | IC50 (second compound 0.1 µM): > 10 µM | IC50 (second compound 0.316 µM): > 10 µM | IC50 (second compound 1 µM): > 10 µM | IC50 (second compound 3.16 µM): > 10 µM | IC50 (second compound 10 µM): < 0.0316 µM
Compound: CC(=O)O[C@H]1C(=O)[C@@]2(C)[C@H]([C@H](OC(=O)c3ccccc3)[C@]3(O)C[C@H](OC(=O)[C@H](O)[C@@H](NC(=O)c4ccccc4)c4ccccc4)C(C)=C1C3(C)C)[C@]1(OC(C)=O)CO[C@@H]1C[C@@H]2O + Cc1cnc(CNC(=O)c2c(=O)c3ccc(N4CCCN(C)CC4)nc3n3c2sc2ccccc23)cn1
viability, T/C [1]: 78.7% | viability, T/C [2]: 93.7% | viability, T/C [3]: 72.2% | viability, T/C [4]: 75.3% | viability, T/C [5]: 92.5% | viability, T/C [6]: 93.3% | viability, T/C [7]: 104% | viability, T/C [8]: 90.9% | viability, T/C [9]: 74.8% | viability, T/C [10]: 91.5% | viability, T/C [11]: 103% | viability, T/C [12]: 67.8% | viability, T/C [13]: 65.2% | viability, T/C [14]: 57.1% | viability, T/C [15]: 60.6% | viability, T/C [16]: 68.9% | viability, T/C [17]: 70.9% | viability, T/C [18]: 73.4% | viability, T/C [19]: 55.7% | viability, T/C [20]: 70.9% | viability, T/C [21]: 48.5% | viability, T/C [22]: 58.6% | viability, T/C [23]: 67.1% | viability, T/C [24]: 56.1% | viability, T/C [25]: 59.7% | viability, T/C [26]: 67.7% | viability, T/C [27]: 45.9% | viability, T/C [28]: 66.8% | viability, T/C [29]: 51.4% | viability, T/C [30]: 59.9% | viability, T/C [31]: 26.7% | viability, T/C [32]: 44.4% | viability, T/C [33]: 38.7% | viability, T/C [34]: 58.5% | viability, T/C [35]: 48.9% | viability, T/C [36]: 69.6%

Compound: COc1cccc2c1C(=O)c1c(O)c3c(c(O)c1C2=O)CC(O)(C(=O)CO)CC3OC1CC(N)C(O)C(C)O1 (stereo not drawn) + Cc1[nH]c2ccc(F)cc2c1-c1nc2c3cccnc3c3ncccc3c2[nH]1
IC50 (second compound 0.0316 µM): > 10 µM | IC50 (second compound 0.1 µM): > 10 µM | IC50 (second compound 0.316 µM): > 10 µM | IC50 (second compound 1 µM): > 10 µM | IC50 (second compound 3.16 µM): > 10 µM | IC50 (second compound 10 µM): > 10 µM | viability, T/C [1]: 117% | viability, T/C [2]: 126% | viability, T/C [3]: 95.3% | viability, T/C [4]: 81.9% | viability, T/C [5]: 82.1% | viability, T/C [6]: 75.3% | viability, T/C [7]: 104% | viability, T/C [8]: 122% | viability, T/C [9]: 98.5% | viability, T/C [10]: 80.1% | viability, T/C [11]: 61.3% | viability, T/C [12]: 62.1% | viability, T/C [13]: 82.3% | viability, T/C [14]: 95.4% | viability, T/C [15]: 121% | viability, T/C [16]: 78.6% | viability, T/C [17]: 72.9% | viability, T/C [18]: 50.6% | viability, T/C [19]: 109% | viability, T/C [20]: 98.6% | viability, T/C [21]: 109% | viability, T/C [22]: 70.2% | viability, T/C [23]: 69.9% | viability, T/C [24]: 51.9% | viability, T/C [25]: 96.3% | viability, T/C [26]: 72.7% | viability, T/C [27]: 78.3% | viability, T/C [28]: 68.2% | viability, T/C [29]: 62.4% | viability, T/C [30]: 72.9% | viability, T/C [31]: 47% | viability, T/C [32]: 79.9% | viability, T/C [33]: 60.7% | viability, T/C [34]: 51.4% | viability, T/C [35]: 44% | viability, T/C [36]: 78.1%
